The results in this text go back to US9790537B2, “Quinone-masked probes as labeling reagents for cell uptake measurements” (PROMEGA CORPORATION, priority 2014, dated 2017).

One data set addresses OATP1B1*1a (Homo sapiens, UniProt Q9Y6L6). In words: Cell-based uptake transporter assay, TransportoCells OATP1B1*1a, luminescence. The note with it: various concentrations, 30 min 37° C.; FIG. 13. The procedure: (§1) Stock solutions of each compound were prepared as 10 mM in methanol. Corning TransportoCells OATP1B1*1a, OATP1B3, and Control Cells were used as cell model for cell-based uptake transporter assay. Cells were cultured according to manufacturer's recommendations. Briefly, cells were thawed from liquid nitrogen storage and cultured in Dulbecco's Modified Eagle's medium supplemented with fetal bovine serum (FBS), MEM non-essential amino acid, and sodium butyrate. Cells were then plated in Corning 96-well, poly-D-Lysine white/clear plate at 100,000 cells/well in 100 μl medium and incubated for 24 hours at 37° C. with 5% CO2.
(§2) The uptake transporter assay was carried out by adding 100 μl of Hank's balanced salt solution containing 10 μM of one of the compounds to all the cells and incubated at 37° C. for 30 minutes. […] After a 20 minute incubation at room temperature (20°-25° C.), luminescence was detected on a GloMax® luminometer. […]
(§3) The uptake transporter assay was carried out by adding 100 μl of Hank's balanced salt solution containing various concentrations (See FIG. 13) of PBI-5651 to all the cells and incubated at 37° C. for 30 minutes. […] After a 20 minute incubation at room temperature (20°-25° C.), luminescence was detected on a GloMax® luminometer.

A further data set deals with OATP1B3 (Homo sapiens, UniProt Q9NPD5). In words: Cell-based uptake transporter assay, TransportoCells OATP1B3, luminescence. The note with it: various concentrations, 30 min 37° C.; FIG. 13. The method, then: as §1, §2, §3
Chain of OATP1B3 (Q9NPD5 whole entry): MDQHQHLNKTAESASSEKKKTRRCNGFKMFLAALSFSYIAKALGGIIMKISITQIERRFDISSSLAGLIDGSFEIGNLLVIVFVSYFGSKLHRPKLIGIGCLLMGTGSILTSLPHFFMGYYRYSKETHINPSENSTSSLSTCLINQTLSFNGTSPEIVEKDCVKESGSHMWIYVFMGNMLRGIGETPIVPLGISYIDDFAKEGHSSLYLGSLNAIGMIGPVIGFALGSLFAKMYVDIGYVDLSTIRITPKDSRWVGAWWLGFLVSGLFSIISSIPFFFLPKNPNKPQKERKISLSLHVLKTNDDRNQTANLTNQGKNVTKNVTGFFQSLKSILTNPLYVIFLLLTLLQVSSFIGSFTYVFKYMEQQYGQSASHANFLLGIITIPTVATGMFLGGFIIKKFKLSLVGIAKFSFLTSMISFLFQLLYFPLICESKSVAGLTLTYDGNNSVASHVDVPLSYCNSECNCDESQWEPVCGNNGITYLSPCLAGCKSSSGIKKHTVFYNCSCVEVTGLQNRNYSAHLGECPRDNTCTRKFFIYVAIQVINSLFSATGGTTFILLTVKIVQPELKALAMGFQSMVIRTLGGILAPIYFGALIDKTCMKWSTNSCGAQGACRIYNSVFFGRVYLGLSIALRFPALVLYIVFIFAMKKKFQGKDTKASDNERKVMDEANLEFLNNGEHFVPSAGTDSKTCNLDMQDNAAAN

Consider `CC1=C(C)C(=O)C(C(C)(C)CC(=O)N(C)CCN(CCOCCOCCC(=O)NCCCCC(NC(=O)CC[C@@H](C)[C@H]2CC[C@H]3[C@@H]4[C@@H](O)C[C@@H]5C[C@H](O)CC[C@]5(C)[C@H]4CC[C@]23C)C(=O)O)C(=O)Oc2ccc3nc(C4=NC(C(=O)O)CS4)sc3c2)=C(C)C1=O` (stereo partly drawn) [PBI-5651, 2-(6-((((20R)-15-carboxy-20-((3R,5S,7S,8R,9S,10S,13R,14S,17R)-3,7-dihydroxy-10,13-dimethylhexadecahydro-1H-cyclopenta[a]phenanthren-17-yl)-9,17-dioxo-3,6-dioxa-10,16-diazahenicosyl)(2-(N,3-dimethyl-3-(2,4,5-trimethyl-3,6-dioxocyclohexa-1,4-dien-1-yl)butanamido)ethyl)carbamoyl)oxy)benzo[d]thiazol-2-yl)-4,5-dihydrothiazole-4-carboxylic acid], for which the “response of luminescence (RLU) to compound concentration” value on OATP1B1*1a and on OATP1B3 was “dynamic response of luminescence” in each case.
